Experiment: xn = mol fraction of the nth substance listed
Settings: 100 kPa, Liquid; for viscosity: Concentric cylinders viscometry; for mass density: Vibrating tube method

CCOC(=O)CCC(=O)OCC [diethyl butanedioate] + CCCCCCO
Settings	mass density [kg/m3]	viscosity [mPa·s]
288.15 K, x1 = 0.0999	849.53	4.539
288.15 K, x1 = 0.2	875.7	3.729
288.15 K, x1 = 0.3001	900.45	3.285
288.15 K, x1 = 0.4	923.97	3.019
288.15 K, x1 = 0.4999	946.39	2.869
288.15 K, x1 = 0.6	967.72	2.789
288.15 K, x1 = 0.7002	988.27	2.788
288.15 K, x1 = 0.7999	1007.86	2.856
288.15 K, x1 = 0.9	1026.75	2.954
288.15 K, x1 = 1	1044.83	3.195
293.15 K, x1 = 0.0999	845.73	3.876
293.15 K, x1 = 0.2	871.67	3.213
293.15 K, x1 = 0.3001	896.23	2.842
293.15 K, x1 = 0.4	919.56	2.62
293.15 K, x1 = 0.4999	941.82	2.495
293.15 K, x1 = 0.6	963	2.432
293.15 K, x1 = 0.7002	983.42	2.435
293.15 K, x1 = 0.7999	1002.88	2.495
293.15 K, x1 = 0.9	1021.66	2.61
293.15 K, x1 = 1	1039.63	2.807
298.15 K, x1 = 0.0999	841.91	3.358
298.15 K, x1 = 0.2	867.63	2.817
298.15 K, x1 = 0.3001	891.99	2.508
298.15 K, x1 = 0.4	915.15	2.327
298.15 K, x1 = 0.4999	937.24	2.231
298.15 K, x1 = 0.6	958.28	2.18
298.15 K, x1 = 0.7002	978.57	2.188
298.15 K, x1 = 0.7999	997.91	2.24
298.15 K, x1 = 0.9	1016.57	2.337
298.15 K, x1 = 1	1034.44	2.491
303.15 K, x1 = 0.0999	838.07	2.932
303.15 K, x1 = 0.2	863.58	2.477
303.15 K, x1 = 0.3001	887.75	2.222
303.15 K, x1 = 0.4	910.73	2.071
303.15 K, x1 = 0.4999	932.67	1.99
303.15 K, x1 = 0.6	953.56	1.952
303.15 K, x1 = 0.7002	973.72	1.962
303.15 K, x1 = 0.7999	992.94	2.01
303.15 K, x1 = 0.9	1011.5	2.098
303.15 K, x1 = 1	1029.25	2.229
308.15 K, x1 = 0.0999	834.22	2.572
308.15 K, x1 = 0.2	859.52	2.193
308.15 K, x1 = 0.3001	883.49	1.98
308.15 K, x1 = 0.4	906.3	1.854
308.15 K, x1 = 0.4999	928.09	1.788
308.15 K, x1 = 0.6	948.84	1.759
308.15 K, x1 = 0.7002	968.87	1.77
308.15 K, x1 = 0.7999	987.97	1.816
308.15 K, x1 = 0.9	1006.42	1.893
308.15 K, x1 = 1	1024.08	2.008
313.15 K, x1 = 0.0999	830.34	2.276
313.15 K, x1 = 0.2	855.43	1.961
313.15 K, x1 = 0.3001	879.22	1.783
313.15 K, x1 = 0.4	901.87	1.679
313.15 K, x1 = 0.4999	923.5	1.626
313.15 K, x1 = 0.6	944.11	1.604
313.15 K, x1 = 0.7002	964.01	1.617
313.15 K, x1 = 0.7999	983	1.659
313.15 K, x1 = 0.9	1001.34	1.729
313.15 K, x1 = 1	1018.9	1.821
318.15 K, x1 = 0.0999	826.44	2.013
318.15 K, x1 = 0.2	851.33	1.748
318.15 K, x1 = 0.3001	874.93	1.598
318.15 K, x1 = 0.4	897.41	1.511
318.15 K, x1 = 0.4999	918.89	1.468
318.15 K, x1 = 0.6	939.37	1.452
318.15 K, x1 = 0.7002	959.15	1.467
318.15 K, x1 = 0.7999	978.02	1.506
318.15 K, x1 = 0.9	996.26	1.57
318.15 K, x1 = 1	1013.72	1.66
323.15 K, x1 = 0.0999	822.52	1.817
323.15 K, x1 = 0.2	847.2	1.584
323.15 K, x1 = 0.3001	870.62	1.458
323.15 K, x1 = 0.4	892.94	1.386
323.15 K, x1 = 0.4999	914.27	1.344
323.15 K, x1 = 0.6	934.62	1.337
323.15 K, x1 = 0.7002	954.28	1.353
323.15 K, x1 = 0.7999	973.05	1.391
323.15 K, x1 = 0.9	991.18	1.448
323.15 K, x1 = 1	1008.55	1.523
